# Source: patent US20150094474A1, “AGRICULTURAL CHEMICALS” (Redx Pharma Ltd., priority 2012, published 2015)
# Experiments:
# Format in all cases: in vivo
# Conditions in all cases: 20% concentration
# [1] = test system: houseflies, Musca domestica; experiment: Insect repellent bioassay, houseflies (treated tile arena)
# Procedure: (§1) A laboratory bioassay was conducted to screen 5 compounds (Icaridin (38); and 4 icaridin analogues: 39, 40a, 42a and 41) for repellent activity against houseflies, Musca domestica, black ants, Lasius niger, German cockroaches, Blattella germanica, and bedbugs, Cimex lectularius. Compounds were diluted in a mixture of ethanol and water and assessed at a 20% concentration. A mixture of ethanol/water only negative control was also included for comparative purposes. These were applied onto an aluminium foil tile, which was placed into one half of an arena. The other half of the arena contained an untreated aluminium foil tile. The number of insects present in the treated and untreated area was assessed every 5 minutes for a total of 20 minutes.
# (§2) Houseflies, Musca domestica, and German cockroaches, Blattella germanica, were obtained from a laboratory culture maintained at i2LResearch. Mixed sex and age adult insects (flies were aged 3-6 days old) were used in the experiments.
# (§3) Temperature was maintained between 24.2 and 24.6° C. and relative humidity ranged between 27.5% and 43.5%, throughout the experimental period.
# (§4) The tested compounds were diluted in ethanol and water to a concentration of 20% (w/w: compound 20%, ethanol 40%, water 40%). The concentrates were prepared at room temperature and stirred for approximately 15 minutes using a vortex mixer. A negative control (mixture of ethanol:water 50:50) was also included in the testing for comparative purposes. Treatments were applied directly on to a non porous surface (aluminium foil), using a Gilson pipette at a rate of 0.225 ml per 225 cm^2 surface tile. A small piece of acetate was used to evenly spread the treatments across the entire surface of the tile.
# For the testing against houseflies: A clear plastic container was used measuring approximately 34 cm long×21 cm wide×20 cm high, with a piece of netting and lid on top. This was divided into two halves using an additional tile with a small slit measuring approximately 2.5 cm×5 cm cut at a height of […] from the base, so that the insects could freely travel between halves. A treated and untreated tile was placed either side of the dividing panel. Twenty flies were placed in the half with the treated surface. Sugar and water was placed in both halves. The number of insects crossing from the treated area into the untreated area was assessed at 5 minute intervals for a total of 20 minutes.
# (§5) Three to six replicates were performed for each treatment, for each species.
# [2] = test system: German cockroaches, Blattella germanica; experiment: Insect repellent bioassay, German cockroaches (treated tile arena)
# Procedure: as §1, §2, §3, §4
# (§6) For the testing against ants, cockroaches and bedbugs: A clear plastic container was used measuring approximately 34 cm long×21 cm wide×20 cm high. This was divided into two halves. The treated aluminium foil was placed in one half and the other half contained untreated foil. Food (sugar cube for black ants and bran pellet for cockroaches) and water (damp cotton wool) were placed in each half where appropriate. Twenty ants/cockroaches and ten bedbugs were placed in the centre of the arena. The number of insects in each half was assessed at 5 minute intervals for a total of 20 minutes.
# as §5
# [3] = test system: bedbugs, Cimex lectularius; experiment: Insect repellent bioassay, bedbugs (treated tile arena)
# Procedure: as §1
# Bedbugs, Cimex lectularius, were obtained from a laboratory culture maintained at CimexStore (Chepstow, UK). Mixed age and sex adult bedbugs were used in the experiments (see deviation below).
# as §3, §4, §6, §5
# black ants, Lasius niger = experiment: Insect repellent bioassay, black ants (treated tile arena)
# Procedure: as §1
# Black ants, Lasius niger, were field collected from the Cardiff area. Mixed age worker ants were used in the experiments.
# as §3, §4, §6, §5
Structure (SMILES),insects moving towards the treated tile ([1]; TIME 5 mins),insects moving towards the treated tile ([1]; TIME 10 mins),insects moving towards the treated tile ([1]; TIME 15 mins),insects moving towards the treated tile ([1]; TIME 20 mins),insects on the treated tile ([2]; TIME 5 mins),insects on the treated tile ([2]; TIME 10 mins),insects on the treated tile ([2]; TIME 15 mins),insects on the treated tile ([2]; TIME 20 mins),insects on the treated tile ([3]; TIME 10 mins),"insects on the treated tile (black ants, Lasius niger; TIME 5 mins)","insects on the treated tile (black ants, Lasius niger; TIME 10 mins)","insects on the treated tile (black ants, Lasius niger; TIME 15 mins)","insects on the treated tile (black ants, Lasius niger; TIME 20 mins)",insects on the treated tile ([3]; TIME 5 mins),insects on the treated tile ([3]; TIME 15 mins),insects on the treated tile ([3]; TIME 20 mins)
CCC(C)OC(=O)N1CCCCC1C/C=N/O (stereo not drawn) [Compound 40a],B (between 11% and 25% were on the treated tile),B (between 11% and 25% were on the treated tile),B (between 11% and 25% were on the treated tile),B (between 11% and 25% were on the treated tile),C (greater than 25% were on the treated tile),B (between 11% and 25% were on the treated tile),B (between 11% and 25% were on the treated tile),B (between 11% and 25% were on the treated tile),A (10% or less of the insects were on the treated tile),C (greater than 25% were on the treated tile),C (greater than 25% were on the treated tile),C (greater than 25% were on the treated tile),C (greater than 25% were on the treated tile),–,–,–
"CCC(C)OC(=O)N1CCCCC1CC(=O)O (stereo not drawn) [Compound 41, 2-(1-sec-Butoxycarbonyl-2-piperidyl)acetic acid]",A (10% or less of the insects were on the treated tile),A (10% or less of the insects were on the treated tile),B (between 11% and 25% were on the treated tile),B (between 11% and 25% were on the treated tile),B (between 11% and 25% were on the treated tile),B (between 11% and 25% were on the treated tile),B (between 11% and 25% were on the treated tile),B (between 11% and 25% were on the treated tile),B (between 11% and 25% were on the treated tile),C (greater than 25% were on the treated tile),C (greater than 25% were on the treated tile),C (greater than 25% were on the treated tile),C (greater than 25% were on the treated tile),A (10% or less of the insects were on the treated tile),B (between 11% and 25% were on the treated tile),B (between 11% and 25% were on the treated tile)
"CCC(C)OC(=O)N1CCCCC1CC(=O)OC (stereo not drawn) [Compound 42a, sec-Butyl 2-(2-methoxy-2-oxo-ethyl)piperidine-1-carboxylate]",A (10% or less of the insects were on the treated tile),A (10% or less of the insects were on the treated tile),B (between 11% and 25% were on the treated tile),B (between 11% and 25% were on the treated tile),B (between 11% and 25% were on the treated tile),B (between 11% and 25% were on the treated tile),B (between 11% and 25% were on the treated tile),B (between 11% and 25% were on the treated tile),A (10% or less of the insects were on the treated tile),B (between 11% and 25% were on the treated tile),B (between 11% and 25% were on the treated tile),B (between 11% and 25% were on the treated tile),A (10% or less of the insects were on the treated tile),A (10% or less of the insects were on the treated tile),A (10% or less of the insects were on the treated tile),A (10% or less of the insects were on the treated tile)
"CCC(C)OC(=O)N1CCCCC1CCO (stereo not drawn) [Icaridin (38), Icaridin, reference compound]",B (between 11% and 25% were on the treated tile),C (greater than 25% were on the treated tile),C (greater than 25% were on the treated tile),C (greater than 25% were on the treated tile),B (between 11% and 25% were on the treated tile),B (between 11% and 25% were on the treated tile),A (10% or less of the insects were on the treated tile),A (10% or less of the insects were on the treated tile),A (10% or less of the insects were on the treated tile),B (between 11% and 25% were on the treated tile),B (between 11% and 25% were on the treated tile),B (between 11% and 25% were on the treated tile),A (10% or less of the insects were on the treated tile),A (10% or less of the insects were on the treated tile),A (10% or less of the insects were on the treated tile),A (10% or less of the insects were on the treated tile)
"CCC(C)OC(=O)N1CCCCC1CC=O (stereo not drawn) [Compound 39, sec-Butyl 2-(2-oxoethyl)piperidine-1-carboxylate]",B (between 11% and 25% were on the treated tile),C (greater than 25% were on the treated tile),C (greater than 25% were on the treated tile),C (greater than 25% were on the treated tile),B (between 11% and 25% were on the treated tile),B (between 11% and 25% were on the treated tile),B (between 11% and 25% were on the treated tile),B (between 11% and 25% were on the treated tile),–,B (between 11% and 25% were on the treated tile),B (between 11% and 25% were on the treated tile),B (between 11% and 25% were on the treated tile),B (between 11% and 25% were on the treated tile),A (10% or less of the insects were on the treated tile),–,A (10% or less of the insects were on the treated tile)
